Patent publication US20090215778A1, “Alpha-substituted Arylmethyl Piperazine Pyrazolo [1,5-alpha]Pyrimidine Amide Derivatives” (priority 2007, published 2009)
pIC50: −log10 of the molar value.

Assays:
[1] = molecular target: T1, HIV Env six-helix bundle (6HB) structure (Human immunodeficiency virus type 1 group M subtype B, UniProt P04579); assay: Six-helix bundle (6HB) assay; format: cell-based, HIV-1 (strain RF)
T1 construct: H9 cells chronically infected with HIV-1 (H9/HIV-1RF); endogenous in cells; host or cells: H9 cells chronically infected with HIV-1 strain RF (Env is made from the virus in the infected cells, not by transfection)
Method in brief: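 Chronically HIV-1 RF-infected H9 cells (12-40 days post-infection), 2.5×10^5 per well, were preincubated with compound for 30 min at 37 °C. sCD4 at 1 μg/mL was added for 1 h to trigger Env changes. 6HB-specific rabbit serum (1 h, 37 °C) was then added, followed by PE anti-rabbit (45 min, 4 °C), with flow cytometric fluorescence read-out.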

[2] = system: HIV-1, NL4-3 strain; assay: Virus infection assay (virus entry and single-cycle infection); format: cell-based; conditions: Human immunodeficiency virus 1, NL43, TZM-b1, read-out: Nl4
Method in brief: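 TZM-b1 cells (CD4, CXCR4, CCR5; LTR-driven lacZ/luciferase reporters) were infected with HIV-1 NL4-3 (MOI 0.01) with 80 μg/mL DEAE-dextran in the presence of test compound, 4 h at 37 °C before adding complete medium. Infection was quantified one day post-infection as chemiluminescent β-galactosidase signal.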

T1 sequence (P04579 32-519): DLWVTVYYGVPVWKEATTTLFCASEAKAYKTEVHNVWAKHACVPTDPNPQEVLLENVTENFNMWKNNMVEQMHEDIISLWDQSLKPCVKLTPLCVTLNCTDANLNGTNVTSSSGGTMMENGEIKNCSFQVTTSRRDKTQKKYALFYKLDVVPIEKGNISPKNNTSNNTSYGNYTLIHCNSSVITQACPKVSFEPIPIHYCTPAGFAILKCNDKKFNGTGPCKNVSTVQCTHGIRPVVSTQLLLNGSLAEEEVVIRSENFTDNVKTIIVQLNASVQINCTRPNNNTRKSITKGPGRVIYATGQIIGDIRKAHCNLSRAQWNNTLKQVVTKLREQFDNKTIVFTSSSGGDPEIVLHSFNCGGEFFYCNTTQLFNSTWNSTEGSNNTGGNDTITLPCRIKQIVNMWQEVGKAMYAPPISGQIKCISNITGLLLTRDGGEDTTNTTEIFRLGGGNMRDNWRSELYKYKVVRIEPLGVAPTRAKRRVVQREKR
T1 sequence (P04579 520-865): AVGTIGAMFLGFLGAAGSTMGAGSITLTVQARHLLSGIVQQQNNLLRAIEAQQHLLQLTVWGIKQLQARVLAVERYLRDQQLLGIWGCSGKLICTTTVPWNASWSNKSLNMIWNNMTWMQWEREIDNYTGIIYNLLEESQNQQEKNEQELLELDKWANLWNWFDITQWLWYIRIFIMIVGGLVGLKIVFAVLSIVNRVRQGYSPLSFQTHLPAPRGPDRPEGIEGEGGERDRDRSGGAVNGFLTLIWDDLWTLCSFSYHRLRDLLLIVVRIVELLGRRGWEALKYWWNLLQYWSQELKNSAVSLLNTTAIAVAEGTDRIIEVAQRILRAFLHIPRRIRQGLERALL

Compound | pIC50 [1] | pIC50 [2]
COc1ccc(-c2nc3c(C(=O)N4CCN(C(CN(C)C)c5ccccc5)C[C@H]4C)cnn3c(C(F)(F)F)c2C)cc1 (stereo partly drawn) [methanone, [(2R)-4-[2-(dimethylamino)-1-phenylethyl]-2-methyl-1-piperazinyl][5-(4-methoxyphenyl)-6-methyl-7-(trifluoromethyl)pyrazolo[1,5-α]pyrimidin-3-yl]-] | > 6.00 | > 6.00
COc1ccc(-c2nc3c(C(=O)N4CCN(C(CO)c5cccnc5)C[C@H]4C)cnn3c(C(F)(F)F)c2C)cc1 (stereo partly drawn) [methanone, [(2R)-4-[2-hydroxy-1-(3-pyridinyl)ethyl]-2-methyl-1-piperazinyl][5-(4-methoxyphenyl)-6-methyl-7-(trifluoromethyl)pyrazolo[1,5-α]pyrimidin-3-yl]-] | > 6.00 | < 5.00
COc1ccc(-c2nc3c(C(=O)N4CCN(C(CO)c5ccccc5OC)C[C@H]4C)cnn3c(C(F)(F)F)c2C)cc1 (stereo partly drawn) [methanone, [(2R)-4-[2-hydroxy-1-(2-methoxyphenyl)ethyl]-2-methyl-1-piperazinyl][5-(4-methoxyphenyl)-6-methyl-7-(trifluoromethyl)pyrazolo[1,5-α]pyrimidin-3-yl]-] | > 6.00 | > 6.00
COc1ccc(-c2nc3c(C(=O)N4CCN([C@@H](CO)c5ccco5)C[C@H]4C)cnn3c(C(F)(F)F)c2C)cc1 [methanone, [(2R)-4-[(1S)-1-(2-furanyl)-2-hydroxyethyl]-2-methyl-1-piperazinyl][5-(4-methoxyphenyl)-6-methyl-7-(trifluoromethyl)pyrazolo[1,5-α]pyrimidin-3-yl]-] | > 6.00 | > 6.00
COc1ccc(-c2nc3c(C(=O)N4CCN([C@@H](CO)c5ccccc5)C[C@H]4C)cnn3c(C(F)(F)F)c2C)cc1 [drawing 184, methanone, [(2R)-4-[(1R)-2-hydroxy-1-phenylethyl]-2-methyl-1-piperazinyl][5-(4-methoxyphenyl)-7-(trifluoromethyl)pyrazolo[1,5-α]pyrimidin-3-yl]-] | > 6.00 | > 6.00
COc1ccc(-c2nc3c(C(=O)N4CCN([C@@H](CO)c5cccnc5OC)C[C@H]4C)cnn3c(C(F)(F)F)c2C)cc1 [methanone, [(2R)-4-[(1R)-2-hydroxy-1-(2-methoxy-3-pyridinyl)ethyl]-2-methyl-1-piperazinyl][5-(4-methoxyphenyl)-6-methyl-7-(trifluoromethyl)pyrazolo[1,5-α]pyrimidin-3-yl]-] | > 6.00 | > 6.00
COc1ccc(-c2nc3c(C(=O)N4CCN([C@@H](C)c5ccc(C#N)s5)C[C@H]4C)cnn3c(C(F)(F)F)c2C)cc1 [2-thiophenecarbonitrile, 5-[(1S)-1-[(3R)-4-[[5-(4-methoxyphenyl)-6-methyl-7-(trifluoromethyl)pyrazolo[1,5-α]pyrimidin-3-yl]carbonyl]-3-methyl-1-piperazinyl]ethyl]-] | > 6.00 | 5.00 to 5.96
COc1ccc(-c2nc3c(C(=O)N4CCN([C@H](CO)c5ccc(C)s5)C[C@H]4C)cnn3c(C(F)(F)F)c2C)cc1 [methanone, [(2R)-4-[(1R)-2-hydroxy-1-(5-methyl-2-thienyl)ethyl]-2-methyl-1-piperazinyl][5-(4-methoxyphenyl)-6-methyl-7-(trifluoromethyl)pyrazolo[1,5-α]pyrimidin-3-yl]-] | > 6.00 | > 6.00
COc1ccc(-c2nc3c(C(=O)N4CCN(C(CO)c5ccsc5)C[C@H]4C)cnn3c(C(F)(F)F)c2C)cc1 (stereo partly drawn) [methanone, [(2R)-4-[2-hydroxy-1-(3-thienyl)ethyl]-2-methyl-1-piperazinyl][5-(4-methoxyphenyl)-6-methyl-7-(trifluoromethyl)pyrazolo[1,5-α]pyrimidin-3-yl]-] | > 6.00 | > 6.00
COc1ccc(-c2nc3c(C(=O)N4CCN(C(CO)c5ccc(OC)nc5)C[C@H]4C)cnn3c(C(F)(F)F)c2C)cc1 (stereo partly drawn) [methanone, [(2R)-4-[2-hydroxy-1-(6-methoxy-3-pyridinyl)ethyl]-2-methyl-1-piperazinyl][5-(4-methoxyphenyl)-6-methyl-7-(trifluoromethyl)pyrazolo[1,5-α]pyrimidin-3-yl]-] | > 6.00 | > 6.00
COc1ccc(-c2nc3c(C(=O)N4CCN(C(CNS(C)(=O)=O)c5ccccc5)C[C@H]4C)cnn3c(C(F)(F)F)c2C)cc1 (stereo partly drawn) [methanesulfonamide, N-[2-[(3R)-4-[[5-(4-methoxyphenyl)-6-methyl-7-(trifluoromethyl)pyrazolo[1,5-α]pyrimidin-3-yl]carbonyl]-3-methyl-1-piperazinyl]-2-phenylethyl]-, 2,2,2-trifluoroacetate] | > 6.00 | > 6.00
COc1ccc(-c2nc3c(C(=O)N4CCN([C@@H](CO)c5ccccc5)C[C@H]4C)cnn3c(C(F)(F)F)c2F)cc1 [methanone, [6-fluoro-5-(4-methoxyphenyl)-7-(trifluoromethyl)pyrazolo[1,5-α]pyrimidin-3-yl][(2R)-4-[(1R)-2-hydroxy-1-phenylethyl]-2-methyl-1-piperazinyl]-] | > 6.00 | > 6.00
COc1ccc(-c2nc3c(C(=O)N4CCN(C(CO)c5cccc(N6CCCC6)c5)C[C@H]4C)cnn3c(C(F)(F)F)c2C)cc1 (stereo partly drawn) [methanone, [(2R)-4-[2-hydroxy-1-[3-(1-pyrrolidinyl)phenyl]ethyl]-2-methyl-1-piperazinyl][5-(4-methoxyphenyl)-6-methyl-7-(trifluoromethyl)pyrazolo[1,5-α]pyrimidin-3-yl]-] | > 6.00 | > 6.00
COc1ccc(-c2nc3c(C(=O)N4CCN(C(CO)c5ccco5)C[C@H]4C)cnn3c(C(F)(F)F)c2C)cc1 (stereo partly drawn) [methanone, [(2R)-4-[1-(2-furanyl)-2-hydroxyethyl]-2-methyl-1-piperazinyl][5-(4-methoxyphenyl)-6-methyl-7-(trifluoromethyl)pyrazolo[1,5-α]pyrimidin-3-yl]-] | > 6.00 | > 6.00
COc1ccc(-c2nc3c(C(=O)N4CCN(C(CO)c5ccccc5NC(N)=O)C[C@H]4C)cnn3c(C(F)(F)F)c2C)cc1 (stereo partly drawn) [urea, N-[2-[2-hydroxy-1-[(3R)-4-[[5-(4-methoxyphenyl)-6-methyl-7-(trifluoromethyl)pyrazolo[1,5-α]pyrimidin-3-yl]carbonyl]-3-methyl-1-piperazinyl]ethyl]phenyl]-] | < 5.00 | < 5.00
COc1ccc(-c2nc3c(C(=O)N4CCN([C@H](CO)c5ccccc5OC)C[C@H]4C)cnn3c(C(F)(F)F)c2C)cc1 [methanone, [(2R)-4-[(1S)-2-hydroxy-1-(2-methoxyphenyl)ethyl]-2-methyl-1-piperazinyl][5-(4-methoxyphenyl)-6-methyl-7-(trifluoromethyl)pyrazolo[1,5-α]pyrimidin-3-yl]-] | > 6.00 | > 6.00
COc1ccc(-c2nc3c(C(=O)N4CCN([C@@H](CO)c5c(C)noc5C)C[C@H]4C)cnn3c(C(F)(F)F)c2C)cc1 [methanone, [(2R)-4-[(1R)-1-(3,5-dimethyl-4-isoxazolyl)-2-hydroxyethyl]-2-methyl-1-piperazinyl][5-(4-methoxyphenyl)-6-methyl-7-(trifluoromethyl)pyrazolo[1,5-α]pyrimidin-3-yl]-] | 5.00 to 5.96 | 5.00 to 5.96
COc1ccc(-c2nc3c(C(=O)N4CCN([C@@H](C)c5cccs5)C[C@H]4C)cnn3c(C(F)(F)F)c2C)cc1 [methanone, [5-(4-methoxyphenyl)-6-methyl-7-(trifluoromethyl)pyrazolo[1,5-α]pyrimidin-3-yl][(2R)-2-methyl-4-[(1S)-1-(2-thienyl)ethyl]-1-piperazinyl]-] | > 6.00 | > 6.00
COc1ccc(-c2nc3c(C(=O)N4CCN(C(CO)c5cccc6c5OC(F)(F)O6)C[C@H]4C)cnn3c(C(F)(F)F)c2C)cc1 (stereo partly drawn) [methanone, [(2R)-4-[1-(2,2-difluoro-1,3-benzodioxol-4-yl)-2-hydroxyethyl]-2-methyl-1-piperazinyl][5-(4-methoxyphenyl)-6-methyl-7-(trifluoromethyl)pyrazolo[1,5-α]pyrimidin-3-yl]-] | > 6.00 | > 6.00
COc1ccc(-c2nc3c(C(=O)N4CCN(C(CO)c5cccc(N6CCOCC6)c5)C[C@H]4C)cnn3c(C(F)(F)F)c2C)cc1 (stereo partly drawn) [methanone, [(2R)-4-[2-hydroxy-1-[3-(4-morpholinyl)phenyl]ethyl]-2-methyl-1-piperazinyl][5-(4-methoxyphenyl)-6-methyl-7-(trifluoromethyl)pyrazolo[1,5-α]pyrimidin-3-yl]-] | 5.00 to 5.96 | 5.00 to 5.96
COc1ccc(-c2nc3c(C(=O)N4CCN(C(CO)c5ccc(OC)cc5)C[C@H]4C)cnn3c(C(F)(F)F)c2C)cc1 (stereo partly drawn) [methanone, [(2R)-4-[2-hydroxy-1-(4-methoxyphenyl)ethyl]-2-methyl-1-piperazinyl][5-(4-methoxyphenyl)-6-methyl-7-(trifluoromethyl)pyrazolo[1,5-α]pyrimidin-3-yl]-] | > 6.00 | > 6.00
COc1ccc(-c2nc3c(C(=O)N4CCN(C(CO)c5cnc(OC)nc5)C[C@H]4C)cnn3c(C(F)(F)F)c2C)cc1 (stereo partly drawn) [methanone, [(2R)-4-[2-hydroxy-1-(2-methoxy-5-pyrimidinyl)ethyl]-2-methyl-1-piperazinyl][5-(4-methoxyphenyl)-6-methyl-7-(trifluoromethyl)pyrazolo[1,5-α]pyrimidin-3-yl]-] | > 6.00 | > 6.00
